Results on 10 molecules are retold here after ChEMBL document CHEMBL1255323, “Prevalence and susceptibility profile of Candida metapsilosis and Candida orthopsilosis: results from population-based surveillance of candidemia in Spain” (2008).

Values after ≈ are worked out from the molar mass of the structure shown. Numbered stars: 1 amine (or outer) side, 2 acyl side, 3 side chain; on linkers, the order of the positions; unused ones are H or OH. Bridge positions count the residues as written; N and C are the ends. Square brackets hold non-standard residues; d marks the D form. Peptide text beside a SMILES is read from it. * marks the point of attachment. hTyr(3S-OH,4S-OH,3'-OSO3H) = N[C@H](C(=O)O)[C@H](O)[C@@H](O)c1ccc(O)c(OS(=O)(=O)O)c1; pTerphenylCO(4''-OnC5H11) = CCCCCOc1ccc(-c2ccc(-c3ccc(C(=O)*)cc3)cc2)cc1; Orn(4R-OH,5R-OH) = O=C([C@H](C[C@@H](O)[C@@H](O)N[*:3])N[*:1])[*:2]; hTyr(3S-OH,4S-OH) = N[C@H](C(=O)O)[C@H](O)[C@@H](O)c1ccc(O)cc1; Pro(3S-OH,4S-Me) = C[C@H]1CN[C@H](C(=O)O)[C@H]1O; X1 = CCCCCOc1ccc(-c2cc(-c3ccc(C(=O)*)cc3)no2)cc1; Gln(3R-OH) = NC(=O)C[C@@H](O)[C@H](N)C(=O)O; Hyp = O=C(O)[C@@H]1C[C@@H](O)CN1

Holding throughout (type): functional
The subject of assay [1] is Candida metapsilosis. In words: Antifungal activity against Candida metapsilosis by microdilution AFST-EUCAST method. The settings on record: Lodderomyces metapsilosis.
In assay [2] the test system is Candida parapsilosis. In words: Antifungal activity against Candida parapsilosis by microdilution AFST-EUCAST method. The settings on record: Lodderomyces parapsilosis.
Assay [3] has as its system Candida orthopsilosis. Briefly: Antifungal activity against Candida orthopsilosis by microdilution AFST-EUCAST method. The settings on record: Lodderomyces orthopsilosis.

Consider `C[C@@H](c1ncncc1F)[C@](O)(Cn1cncn1)c1ccc(F)cc1F` [VORICONAZOLE], for which the figures for the minimum inhibitory concentration (MIC) in assay [1], in assay [2] and in assay [3] were 0.03 µg/mL (≈ 0.0859 µM), 0.02 µg/mL (≈ 0.0573 µM) and 0.03 µg/mL (≈ 0.0859 µM), respectively. In addition, the values for the MIC50 in assay [1], in assay [2] and in assay [3] were 0.03 µg/mL (≈ 0.0859 µM), 0.02 µg/mL (≈ 0.0573 µM) and 0.03 µg/mL (≈ 0.0859 µM), respectively.
In the case of `CC[C@@H]([C@H](C)O)n1ncn(-c2ccc(N3CCN(c4ccc(OC[C@@H]5CO[C@@](Cn6cncn6)(c6ccc(F)cc6F)C5)cc4)CC3)cc2)c1=O` [POSACONAZOLE], the MIC was 0.02 µg/mL (≈ 0.0285 µM) in assay [1], 0.02 µg/mL (≈ 0.0285 µM) in assay [2] and 0.03 µg/mL (≈ 0.0428 µM) in assay [3]. The MIC50 worked out at 0.02 µg/mL (≈ 0.0285 µM) in assay [1], 0.02 µg/mL (≈ 0.0285 µM) in assay [2] and 0.03 µg/mL (≈ 0.0428 µM) in assay [3].
Regarding `CCC(C)n1ncn(-c2ccc(N3CCN(c4ccc(OCC5COC(Cn6cncn6)(c6ccc(Cl)cc6Cl)O5)cc4)CC3)cc2)c1=O` (stereo not given) [ITRACONAZOLE], the MIC in assay [1] came out at 0.04 µg/mL (≈ 0.0567 µM); in assay [2], 0.02 µg/mL (≈ 0.0283 µM); in assay [3], 0.04 µg/mL (≈ 0.0567 µM). Further, the MIC50 in assay [1] stood at 0.04 µg/mL (≈ 0.0567 µM); in assay [2] it was 0.03 µg/mL (≈ 0.0425 µM); in assay [3], 0.03 µg/mL (≈ 0.0425 µM).
Consider `CCCCCOc1ccc(-c2cc(-c3ccc(C(=O)N[C@H]4C[C@@H](O)[C@@H](O)NC(=O)[C@@H]5[C@@H](O)[C@@H](C)CN5C(=O)[C@H]([C@H](O)CC(N)=O)NC(=O)[C@H]([C@H](O)[C@@H](O)c5ccc(O)c(OS(=O)(=O)O)c5)NC(=O)[C@@H]5C[C@@H](O)CN5C(=O)[C@H]([C@@H](C)O)NC4=O)cc3)no2)cc1` [MICAFUNGIN] (X1-[Orn(4R-OH,5R-OH)]T[Hyp][hTyr(3S-OH,4S-OH,3'-OSO3H)][Gln(3R-OH)][Pro(3S-OH,4S-Me)]; lactam 1-C), for which the MIC in assay [1] is 0.28 µg/mL (≈ 0.22 µM); in assay [2], 0.73 µg/mL (≈ 0.575 µM); in assay [3] it was 0.25 µg/mL (≈ 0.197 µM). Besides, the MIC50 turned out to be 0.25 µg/mL (≈ 0.197 µM) in assay [1], 1 µg/mL (≈ 0.787 µM) in assay [2] and 0.25 µg/mL (≈ 0.197 µM) in assay [3].
On to `Nc1nc(=O)[nH]cc1F` [FLUCYTOSINE], for which the minimum inhibitory concentration (MIC) was found to be 0.14 µg/mL (≈ 1.08 µM) in assay [1], 0.15 µg/mL (≈ 1.16 µM) in assay [2] and 0.12 µg/mL (≈ 0.93 µM) in assay [3]. The MIC50 in assay [1], in assay [2] and in assay [3] was 0.12 µg/mL (≈ 0.93 µM) in each case.
On to `CC[C@H](C)C[C@H](C)CCCCCCCCC(=O)N[C@H]1C[C@@H](O)[C@@H](NCCN)NC(=O)[C@@H]2[C@@H](O)CCN2C(=O)[C@H]([C@H](O)CCN)NC(=O)[C@H]([C@H](O)[C@@H](O)c2ccc(O)cc2)NC(=O)[C@@H]2C[C@@H](O)CN2C(=O)[C@H]([C@@H](C)O)NC1=O` [CASPOFUNGIN], for which the MIC in assay [1] amounted to 0.22 µg/mL (≈ 0.201 µM); in assay [2] it was 0.4 µg/mL (≈ 0.366 µM); in assay [3] it was 0.16 µg/mL (≈ 0.146 µM). The MIC50 in assay [1] was determined as 0.25 µg/mL (≈ 0.229 µM); in assay [2], 0.5 µg/mL (≈ 0.457 µM); in assay [3], 0.12 µg/mL (≈ 0.11 µM).
With `OC(Cn1cncn1)(Cn1cncn1)c1ccc(F)cc1F` [FLUCONAZOLE], the MIC was 1.26 µg/mL (≈ 4.11 µM) in assay [1], 0.37 µg/mL (≈ 1.21 µM) in assay [2] and 0.5 µg/mL (≈ 1.63 µM) in assay [3]. Further, the MIC50 stood at 1 µg/mL (≈ 3.27 µM) in assay [1], 0.5 µg/mL (≈ 1.63 µM) in assay [2] and 0.5 µg/mL (≈ 1.63 µM) in assay [3].
In the case of `C[C@@H](c1nc(-c2ccc(C#N)cc2)cs1)[C@](O)(Cn1cncn1)c1ccc(F)cc1F` [RAVUCONAZOLE], the MIC in assay [1] was 0.02 µg/mL (≈ 0.0457 µM); in assay [2] it was 0.01 µg/mL (≈ 0.0229 µM); in assay [3], 0.02 µg/mL (≈ 0.0457 µM). For the same molecule, the MIC50 in assay [1], in assay [2] and in assay [3] was 0.02 µg/mL (≈ 0.0457 µM) in each case.
Consider `CCCCCOc1ccc(-c2ccc(-c3ccc(C(=O)N[C@H]4C[C@@H](O)[C@@H](O)NC(=O)[C@@H]5[C@@H](O)[C@@H](C)CN5C(=O)[C@H]([C@@H](C)O)NC(=O)[C@H]([C@H](O)[C@@H](O)c5ccc(O)cc5)NC(=O)[C@@H]5C[C@@H](O)CN5C(=O)[C@H]([C@@H](C)O)NC4=O)cc3)cc2)cc1` [ANIDULAFUNGIN] ({pTerphenylCO(4''-OnC5H11)}-[Orn(4R-OH,5R-OH)]T[Hyp][hTyr(3S-OH,4S-OH)]T[Pro(3S-OH,4S-Me)]; lactam 1-C), for which the values for the MIC in assay [1], in assay [2] and in assay [3] were 0.17 µg/mL (≈ 0.149 µM), 0.88 µg/mL (≈ 0.772 µM) and 0.38 µg/mL (≈ 0.333 µM), respectively. For the same molecule, the results for the MIC50 in assay [1], in assay [2] and in assay [3] were 0.18 µg/mL (≈ 0.158 µM), 1 µg/mL (≈ 0.877 µM) and 0.5 µg/mL (≈ 0.438 µM), respectively.
Turning to `C[C@@H]1[C@H](O)[C@@H](C)/C=C/C=C/C=C/C=C/C=C/C=C/C=C/[C@H](O[C@@H]2O[C@H](C)[C@@H](O)[C@H](N)[C@@H]2O)C[C@@H]2O[C@](O)(C[C@@H](O)C[C@@H](O)[C@H](O)CC[C@@H](O)C[C@@H](O)CC(=O)O[C@H]1C)C[C@H](O)[C@H]2C(=O)O` [AMPHOTERICIN B], the minimal inhibitory concentration (MIC) in assay [1] was 0.08 µg/mL (≈ 0.0866 µM); in assay [2] it was 0.14 µg/mL (≈ 0.152 µM); in assay [3], 0.06 µg/mL (≈ 0.0649 µM). The values for the MIC50 in assay [1], in assay [2] and in assay [3] were 0.09 µg/mL (≈ 0.0974 µM), 0.12 µg/mL (≈ 0.13 µM) and 0.06 µg/mL (≈ 0.0649 µM), respectively.
